From publication PMC3059353 (Biochemistry, 2011)

Molecular target: T1, adenine deaminase (ADE) (Escherichia coli, UniProt P31441)
T1 sequence (P31441 1-588): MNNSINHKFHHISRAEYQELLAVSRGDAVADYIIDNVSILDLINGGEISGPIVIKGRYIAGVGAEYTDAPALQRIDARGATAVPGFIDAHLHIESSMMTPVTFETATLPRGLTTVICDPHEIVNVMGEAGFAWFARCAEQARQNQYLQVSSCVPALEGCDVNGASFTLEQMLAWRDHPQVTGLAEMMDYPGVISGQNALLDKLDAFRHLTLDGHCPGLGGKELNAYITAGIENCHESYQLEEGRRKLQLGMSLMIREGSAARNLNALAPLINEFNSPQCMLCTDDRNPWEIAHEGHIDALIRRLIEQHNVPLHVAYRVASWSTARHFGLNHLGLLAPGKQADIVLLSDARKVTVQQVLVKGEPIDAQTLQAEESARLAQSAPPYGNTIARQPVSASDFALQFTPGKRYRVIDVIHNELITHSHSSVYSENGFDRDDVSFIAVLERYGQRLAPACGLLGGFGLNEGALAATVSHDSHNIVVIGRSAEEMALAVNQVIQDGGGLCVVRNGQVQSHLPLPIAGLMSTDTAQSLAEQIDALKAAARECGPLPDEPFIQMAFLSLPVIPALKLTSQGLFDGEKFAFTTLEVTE
Assay: GDH-coupled adenine deamination assay after […] h incubation with Mn/Mn-ADE
Format: biochemical

**Q.** Which Ki does the source give for `Clc1ncnc2[nH]cnc12` [6-chloropurine] here?
**A.** 130 ± 15 nM
